Usually IC50 stands for the concentration that inhibits the measured activity by half. A higher IC50 goes with weaker potency in that assay. As a reminder, the Ki is the dissociation constant of the complex between target and ligand, obtained from inhibition or displacement.

Seven compounds from paper PMC9785194, “New Dibenzo-α-pyrone Derivatives with α-Glucosidase Inhibitory Activities from the Marine-Derived Fungus Alternaria alternata” (Marine Drugs, 2022) can be followed below.

The structures appear in SMILES notation.

In assay [1] the test system is α-glucosidase. Briefly: α-glucosidase inhibition assay (p-NPG substrate). Type of assay: biochemical, Saccharomyces cerevisiae. The settings on record: for α-glucosidase inhibition rate: at a concentration of 400 µM; for IC50: 0.5 U/mL enzyme, p-NPG substrate, 37 °C. Here is the method: (§1) Optical rotations were measured with an Anton Paar MCP 200 Automatic Polarimeter (Anton Paar, Graz, Austria). The UV data were recorded on a Thermo Genesys-10S UV/Vis spectrophotometer (Thermo Fisher Scientific, Waltham, MA, USA). ECD spectra were recorded with a JASCO J-815 spectropolarimeter (JASCO, Tsukuba, Japan) by using CH3OH as the solvent. Infrared spectra were obtained on a Nicolet IS5 FT-IR spectrophotometer (Thermo Fisher Scientific, Waltham, MA, USA). ^1H and ^13C NMR spectroscopic data were acquired with a Bruker Avance-500 spectrometer (Bruker, Bremen, Germany) using the solvent signals as a reference (CD3OD: δH 3.31/δC 49.00). HRESIMS data were obtained using an Agilent Accurate-Mass-Q-TOF LC/MS 6520 instrument (Agilent Technologies, Santa Clara, CA, USA) equipped with an electrospray ionization (ESI) source. Semi-preparative HPLC separation was performed on an Agilent 1260 instrument equipped with a variable-wavelength UV detector (Agilent Technologies Inc., CA, USA) using a YMC-pack ODS-A (10 × 250 mm, 5 μm, 2 mL/min, YMC CO., LTD., Kyoto, Japan).
The α-glucosidase inhibitory activity assay was measured as described in previous reports. Briefly, 50 μL of 0.5 U/mL α-glucosidase and 25 μL of a series of solutions (0.1, 0.2, 0.4, 0.8 and 1.6 mM) of the test compounds 1−10 were added into 96-well plates. After incubation at 37 °C for 10 min, 25 μL of 25 mM p-NPG was added and further incubated at 37 °C for 10 min.

Assay [2] can be described thus: DPPH antioxidant scavenging assay. Conditions: 37 °C, 30 min, absorbance 517 nm. Here is the method:
The DPPH antioxidant scavenging assay was performed according to the previously reported method. Briefly, 50 µL of DPPH (0.34 mmol/L in EtOH) and 50 µL of a series of solutions (12.5, 25, 50, 100, and 200 μM) of the test compounds 1−10 were mixed in the wells of 96-well plates. Each mixture was incubated at 37 °C for 30 min in a dark environment. The absorbance was read at 517 nm using a microplate reader, employing distilled water as a blank for baseline correction. All experiments were performed in triplicate, and ascorbic acid was used as a positive control.
(The DPPH test is a chemical assay of radical scavenging.)

In assay [3] the test system is α-glucosidase. Nature of the assay: enzyme kinetics of α-glucosidase inhibition (Lineweaver-Burk and secondary plots). Type of assay: biochemical, Saccharomyces cerevisiae. Conditions: for inhibition type against α-glucosidase: Lineweaver-Burk plots; for Ki: secondary plots, free enzyme, read-out: Ki (the inhibition constant of the free enzyme). The method, then:
as §1
The inhibition types of compounds 2 and 3 on α-glucosidase were determined by Lineweaver−Burk plots according to a previous report. The α-glucosidase inhibition kinetics were determined with selected concentrations of p-NPG (1.5625, 3.125, 6.25, 12.5 and 25 mM) under different concentrations of 2 and 3 (200, 400 and 800 μM) by keeping the enzyme concentration at 0.5 U/mL. The inhibition constant was determined by the second plots of the apparent Km/Vm or 1/Vm versus the concentration of the inhibitor.

In turn, `COc1cc2oc(=O)c3c(O)cc(O)cc3c2cc1O` [Compound 8, altenuisol] came in with a α-glucosidase inhibition rate in the assay on α-glucosidase [1] of 37.29%.

As for `COc1cc(O)c2c(=O)oc3c(c2c1)[C@@H](C)CC3=O` [Compound 9, 1-deoxyrubralactone], the α-glucosidase inhibition rate in the assay on α-glucosidase [1] was found to be 53.95%.

`COc1cc(O)c2c(=O)oc3c(O)c(O)cc(C)c3c2c1` [Compound 6, 3′-hydroxyalternariol 5-O-methyl ether] registered an IC50 in assay [2] of 83.9 ± 4.14 µM.

For `CC12CC(O)C(O)C=C1c1cc(O)cc(O)c1C(=O)O2` (stereo not drawn) [Compound 3, Alternolide C], in the assay on α-glucosidase [3], the “inhibition type against α-glucosidase” value is given as “mixed-type inhibitors” and the Ki is 108 µM. Moreover, on α-glucosidase [1], the IC50 came to 451 ± 6.95 µM. In the assay with α-glucosidase [1] (400 µM), this compound yielded a α-glucosidase inhibition rate of 49.24%.

In the case of `O=C1O[C@H]([C@@H](O)CO)C(O)=C1O` [ascorbic acid, reference compound], half-maximal inhibition in assay [2] (IC50) was put at 23.7 ± 1.03 µM.

`COc1cc(O)c2c(=O)oc3cc(O)cc(CO)c3c2c1` [Compound 7, alternariol 1′-hydroxy-9-methyl ether]: the IC50 in assay [2] came to 23.6 ± 1.23 µM; at α-glucosidase [1], 6.27 ± 0.68 µM. In addition, the α-glucosidase inhibition rate in the assay with α-glucosidase [1] is 93.70%.

In the case of `CC12CC(O)C(O)C=C1c1cc(O)cc(O)c1C(=O)O2` (stereo not drawn) [Compound 2, Alternolide B], in the assay with α-glucosidase [3], the “inhibition type against α-glucosidase” value is “mixed-type inhibitors” and the Ki came to 347 µM. The same compound yielded an IC50 against α-glucosidase [1] of 725.9 ± 4.75 µM. Further, the α-glucosidase inhibition rate with α-glucosidase [1] (400 µM) amounted to 36.62%.
